For 15 molecules, IC50 results are on record in patent US9732119B2, “Immunomodulators” (BRISTOL-MYERS SQUIBB COMPANY, priority 2014, dated 2017).

Positions of bridges follow the written chain, without caps; N, C: chain ends. Non-standard residues stand in square brackets, D forms with d. Residues, ends and D or L forms follow the SMILES beside them. Trp(1-CH2COOH) = N[C@@H](Cc1cn(CC(=O)O)c2ccccc12)C(=O)O; Phe(4-Cl) = N[C@@H](Cc1ccc(Cl)cc1)C(=O)O; Phe(4-F) = N[C@@H](Cc1ccc(F)cc1)C(=O)O; Phe(4-Me) = Cc1ccc(C[C@H](N)C(=O)O)cc1; Hyp = O=C(O)[C@@H]1C[C@@H](O)CN1; Aad = N[C@@H](CCCC(=O)O)C(=O)O; NMeNle = CCCC[C@H](NC)C(=O)O; dOrn = NCCC[C@@H](N)C(=O)O; Pip = O=C(O)[C@@H]1CCCCN1; Orn = NCCC[C@H](N)C(=O)O; Dab = NCC[C@H](N)C(=O)O; Dap = NC[C@H](N)C(=O)O

For orientation: IC50 means the midpoint of a concentration-inhibition curve. Read a low IC50 as greater potency.

The target in the experiment is T1, PD-1-Ig binding to PD-L1-TVMV-His (PD-L1-His) (Homo sapiens, UniProt Q9NZQ7).
T1 construct: hPDL1(19-239)-TVMV-His; made in house; host or cells: HEK293T cells
As to the kind of experiment: PD-1/PD-L1 Homogenous Time-Resolved Fluorescence (HTRF) binding assay. As to conditions: PD-1-Ig (20 nM) / PD-L1-His (10 nM); range classes. In outline:
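HTRF competition: compound pre-incubated 15 min with PD-L1-His (10 nM final), then PD-1-Ig (20 nM final) added for 15 min in dPBS, 0.1% BSA, 0.05% Tween-20. Detection with Eu-cryptate anti-Ig (1 nM) and APC anti-His (20 nM) antibodies.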
On the technique in general: In TR-FRET formats the signal depends on donor and acceptor labels being close together.

T1 sequence (Q9NZQ7 with tags, fused parts or gaps): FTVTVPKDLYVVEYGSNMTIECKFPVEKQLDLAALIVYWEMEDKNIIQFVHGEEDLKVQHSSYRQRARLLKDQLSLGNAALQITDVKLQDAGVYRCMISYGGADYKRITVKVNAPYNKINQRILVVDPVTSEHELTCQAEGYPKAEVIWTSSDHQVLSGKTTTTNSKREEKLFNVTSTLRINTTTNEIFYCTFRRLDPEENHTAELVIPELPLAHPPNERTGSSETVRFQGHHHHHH

The molecule `CCCC[C@H]1C(=O)N(C)[C@@H](CCCC)C(=O)N[C@@H](CC(C)C)C(=O)NCCC[C@H](N)C(=O)N[C@@H](Cc2ccc(OC)cc2)C(=O)N2CCCC[C@H]2C(=O)N[C@@H](CC(N)=O)C(=O)N2CCC[C@H]2C(=O)N[C@@H](CN)C(=O)N[C@@H](CCC(=O)O)C(=O)N2C[C@H](O)C[C@H]2C(=O)N[C@@H](Cc2c[nH]c3ccccc23)C(=O)N[C@@H](CCN)C(=O)N[C@@H](Cc2cn(CC(=O)O)c3ccccc23)C(=O)N1C` [Example 10551] (H-[Orn]Y(Me)[Pip]NP[Dap]E[Hyp]W[Dab][Trp(1-CH2COOH)][NMeNle][NMeNle]L; lactam 1-C) displayed an IC50 of 1 to 9.9 nM.
The value for `CCCC[C@H]1C(=O)N(C)[C@@H](CCCC)C(=O)N[C@@H](CC(C)C)C(=O)N[C@H](C(N)=O)CCCC(=O)N[C@@H](Cc2ccc(O)cc2)C(=O)N2CCCC[C@H]2C(=O)N[C@@H](CC(=O)O)C(=O)N2CCC[C@H]2C(=O)N[C@@H](CN)C(=O)N[C@@H](CC(C)C)C(=O)N2C[C@H](O)C[C@H]2C(=O)N[C@@H](Cc2c[nH]c3ccccc23)C(=O)N[C@@H](CCN)C(=O)N[C@@H](Cc2cn(CC(=O)O)c3ccccc23)C(=O)N1C` [Example 10552] (Y[Pip]DP[Dap]L[Hyp]W[Dab][Trp(1-CH2COOH)][NMeNle][NMeNle]L[Aad]-NH2; lactam N-14) was 1 to 9.9 nM.
Molecule `CCCC[C@H]1C(=O)N(C)[C@@H](CCCC)C(=O)N[C@@H](CC(C)C)C(=O)N[C@H](C(N)=O)CCCC(=O)N[C@@H](Cc2ccc(C)cc2)C(=O)N2CCCC[C@H]2C(=O)N[C@@H](CC(=O)O)C(=O)N2CCC[C@H]2C(=O)N[C@@H](CN)C(=O)N[C@@H](CC(C)C)C(=O)N2C[C@H](O)C[C@H]2C(=O)N[C@@H](Cc2c[nH]c3ccccc23)C(=O)N[C@@H](CCN)C(=O)N[C@@H](Cc2cn(CC(=O)O)c3ccccc23)C(=O)N1C` [Example 10553] ([Phe(4-Me)][Pip]DP[Dap]L[Hyp]W[Dab][Trp(1-CH2COOH)][NMeNle][NMeNle]L[Aad]-NH2; lactam N-14) returned an IC50 of 10 to 99 nM.
The molecule `CCCC[C@H]1C(=O)N(C)[C@@H](CCCC)C(=O)N[C@@H](CC(C)C)C(=O)N[C@H](C(N)=O)CCCC(=O)N[C@@H](Cc2ccc(OC)cc2)C(=O)N2CCCC[C@H]2C(=O)N[C@@H](CC(=O)O)C(=O)N2CCC[C@H]2C(=O)N[C@@H](CN)C(=O)N[C@@H](CC(C)C)C(=O)N2C[C@H](O)C[C@H]2C(=O)N[C@@H](Cc2c[nH]c3ccccc23)C(=O)N[C@@H](CCN)C(=O)N[C@@H](Cc2cn(CC(=O)O)c3ccccc23)C(=O)N1C` [Example 10554] (Y(Me)[Pip]DP[Dap]L[Hyp]W[Dab][Trp(1-CH2COOH)][NMeNle][NMeNle]L[Aad]-NH2; lactam N-14) registered an IC50 of 1 to 9.9 nM.
The value for `CCCC[C@H]1C(=O)N(C)[C@@H](CCCC)C(=O)N[C@@H](CC(C)C)C(=O)N[C@H](C(N)=O)CCCC(=O)N[C@@H](Cc2ccc(F)cc2)C(=O)N2CCCC[C@H]2C(=O)N[C@@H](CC(=O)O)C(=O)N2CCC[C@H]2C(=O)N[C@@H](CN)C(=O)N[C@@H](CC(C)C)C(=O)N2C[C@H](O)C[C@H]2C(=O)N[C@@H](Cc2c[nH]c3ccccc23)C(=O)N[C@@H](CCN)C(=O)N[C@@H](Cc2cn(CC(=O)O)c3ccccc23)C(=O)N1C` [Example 10555] ([Phe(4-F)][Pip]DP[Dap]L[Hyp]W[Dab][Trp(1-CH2COOH)][NMeNle][NMeNle]L[Aad]-NH2; lactam N-14) was 10 to 99 nM.
With `CCCC[C@H]1C(=O)N(C)[C@@H](CCCC)C(=O)N[C@@H](CC(C)C)C(=O)N[C@H](C(N)=O)CCCC(=O)N[C@@H](Cc2ccc(Cl)cc2)C(=O)N2CCCC[C@H]2C(=O)N[C@@H](CC(=O)O)C(=O)N2CCC[C@H]2C(=O)N[C@@H](CN)C(=O)N[C@@H](CC(C)C)C(=O)N2C[C@H](O)C[C@H]2C(=O)N[C@@H](Cc2c[nH]c3ccccc23)C(=O)N[C@@H](CCN)C(=O)N[C@@H](Cc2cn(CC(=O)O)c3ccccc23)C(=O)N1C` [Example 10556] ([Phe(4-Cl)][Pip]DP[Dap]L[Hyp]W[Dab][Trp(1-CH2COOH)][NMeNle][NMeNle]L[Aad]-NH2; lactam N-14), the IC50 is 1 to 9.9 nM.
With `CCCC[C@H]1C(=O)N(C)[C@@H](CCCC)C(=O)N[C@@H](CCC(=O)O)C(=O)N[C@H](C(N)=O)CCCC(=O)N[C@@H](Cc2ccc(Cl)cc2)C(=O)N2CCCC[C@H]2C(=O)N[C@@H](CC(N)=O)C(=O)N2CCC[C@H]2C(=O)N[C@@H](CN)C(=O)N[C@@H](CC(C)C)C(=O)N2C[C@H](O)C[C@H]2C(=O)N[C@@H](Cc2c[nH]c3ccccc23)C(=O)N[C@@H](CCN)C(=O)N[C@@H](Cc2cn(CC(=O)O)c3ccccc23)C(=O)N1C` [Example 10557] ([Phe(4-Cl)][Pip]NP[Dap]L[Hyp]W[Dab][Trp(1-CH2COOH)][NMeNle][NMeNle]E[Aad]-NH2; lactam N-14), the IC50 lay in the range of 1 to 9.9 nM.
As for `CCCC[C@H]1C(=O)N(C)[C@@H](CCCC)C(=O)N[C@@H](CC(C)C)C(=O)NCCC[C@@H](N)C(=O)N[C@@H](Cc2ccc(O)cc2)C(=O)N2CCCC[C@H]2C(=O)N[C@@H](CC(N)=O)C(=O)N2CCC[C@H]2C(=O)N[C@@H](CN)C(=O)N[C@@H](CC(C)C)C(=O)N2C[C@H](O)C[C@H]2C(=O)N[C@@H](Cc2c[nH]c3ccccc23)C(=O)N[C@@H](CCN)C(=O)N[C@@H](Cc2cn(CC(=O)O)c3ccccc23)C(=O)N1C` [Example 10558] (H-[dOrn]Y[Pip]NP[Dap]L[Hyp]W[Dab][Trp(1-CH2COOH)][NMeNle][NMeNle]L; lactam 1-C), the IC50 is 10 to 99 nM.
In turn, `CCCC[C@H]1C(=O)N(C)[C@@H](CCCC)C(=O)N[C@@H](CC(C)C)C(=O)NCCC[C@@H](N)C(=O)N[C@@H](Cc2ccc(Cl)cc2)C(=O)N2CCCC[C@H]2C(=O)N[C@@H](CC(N)=O)C(=O)N2CCC[C@H]2C(=O)N[C@@H](CN)C(=O)N[C@@H](CC(C)C)C(=O)N2C[C@H](O)C[C@H]2C(=O)N[C@@H](Cc2c[nH]c3ccccc23)C(=O)N[C@@H](CCN)C(=O)N[C@@H](Cc2cn(CC(=O)O)c3ccccc23)C(=O)N1C` [Example 10559] (H-[dOrn][Phe(4-Cl)][Pip]NP[Dap]L[Hyp]W[Dab][Trp(1-CH2COOH)][NMeNle][NMeNle]L; lactam 1-C) yielded an IC50 of 10 to 99 nM.
Consider `CCCC[C@H]1C(=O)N(C)[C@@H](CCCC)C(=O)N[C@@H](CC(C)C)C(=O)NCCC[C@@H](N)C(=O)N[C@@H](Cc2ccc(C)cc2)C(=O)N2CCCC[C@H]2C(=O)N[C@@H](CC(N)=O)C(=O)N2CCC[C@H]2C(=O)N[C@@H](CN)C(=O)N[C@@H](CCC(=O)O)C(=O)N2C[C@H](O)C[C@H]2C(=O)N[C@@H](Cc2c[nH]c3ccccc23)C(=O)N[C@@H](CCN)C(=O)N[C@@H](Cc2cn(CC(=O)O)c3ccccc23)C(=O)N1C` [Example 10560] (H-[dOrn][Phe(4-Me)][Pip]NP[Dap]E[Hyp]W[Dab][Trp(1-CH2COOH)][NMeNle][NMeNle]L; lactam 1-C), for which the IC50 is 10 to 99 nM.
In the case of `CCCC[C@H]1C(=O)N(C)[C@@H](CCCC)C(=O)N[C@@H](CCC(=O)O)C(=O)N[C@H](C(N)=O)CCCC(=O)N[C@@H](Cc2ccc(O)cc2)C(=O)N2CCCC[C@H]2C(=O)N[C@@H](CC(N)=O)C(=O)N2CCC[C@H]2C(=O)N[C@@H](CN)C(=O)N[C@@H](CC(C)C)C(=O)N2C[C@H](O)C[C@H]2C(=O)N[C@@H](Cc2c[nH]c3ccccc23)C(=O)N[C@@H](CCN)C(=O)N[C@@H](Cc2cn(CC(=O)O)c3ccccc23)C(=O)N1C` [Example 10561] (Y[Pip]NP[Dap]L[Hyp]W[Dab][Trp(1-CH2COOH)][NMeNle][NMeNle]E[Aad]-NH2; lactam N-14), the IC50 lay within 1 to 9.9 nM.
For `CCCC[C@H]1C(=O)N(C)[C@@H](CCCC)C(=O)N[C@@H](CCC(=O)O)C(=O)N[C@H](C(N)=O)CCCC(=O)N[C@@H](Cc2ccc(C)cc2)C(=O)N2CCCC[C@H]2C(=O)N[C@@H](CC(N)=O)C(=O)N2CCC[C@H]2C(=O)N[C@@H](CN)C(=O)N[C@@H](CC(C)C)C(=O)N2C[C@H](O)C[C@H]2C(=O)N[C@@H](Cc2c[nH]c3ccccc23)C(=O)N[C@@H](CCN)C(=O)N[C@@H](Cc2cn(CC(=O)O)c3ccccc23)C(=O)N1C` [Example 10562] ([Phe(4-Me)][Pip]NP[Dap]L[Hyp]W[Dab][Trp(1-CH2COOH)][NMeNle][NMeNle]E[Aad]-NH2; lactam N-14), the IC50 lay in the range of 10 to 99 nM.
For the molecule `CCCC[C@H]1C(=O)N(C)[C@@H](CCCC)C(=O)N[C@@H](CCC(=O)O)C(=O)N[C@H](C(N)=O)CCCC(=O)N[C@@H](Cc2ccc(OC)cc2)C(=O)N2CCCC[C@H]2C(=O)N[C@@H](CC(N)=O)C(=O)N2CCC[C@H]2C(=O)N[C@@H](CN)C(=O)N[C@@H](CC(C)C)C(=O)N2C[C@H](O)C[C@H]2C(=O)N[C@@H](Cc2c[nH]c3ccccc23)C(=O)N[C@@H](CCN)C(=O)N[C@@H](Cc2cn(CC(=O)O)c3ccccc23)C(=O)N1C` [Example 10563] (Y(Me)[Pip]NP[Dap]L[Hyp]W[Dab][Trp(1-CH2COOH)][NMeNle][NMeNle]E[Aad]-NH2; lactam N-14), the IC50 lay within 1 to 9.9 nM.
In turn, `CCCC[C@H]1C(=O)N(C)[C@@H](CCCC)C(=O)N[C@@H](CCC(=O)O)C(=O)N[C@H](C(N)=O)CCCC(=O)N[C@@H](Cc2ccc(F)cc2)C(=O)N2CCCC[C@H]2C(=O)N[C@@H](CC(N)=O)C(=O)N2CCC[C@H]2C(=O)N[C@@H](CN)C(=O)N[C@@H](CC(C)C)C(=O)N2C[C@H](O)C[C@H]2C(=O)N[C@@H](Cc2c[nH]c3ccccc23)C(=O)N[C@@H](CCN)C(=O)N[C@@H](Cc2cn(CC(=O)O)c3ccccc23)C(=O)N1C` [Example 10564] ([Phe(4-F)][Pip]NP[Dap]L[Hyp]W[Dab][Trp(1-CH2COOH)][NMeNle][NMeNle]E[Aad]-NH2; lactam N-14) gave an IC50 of 10 to 99 nM.
The molecule `CCCC[C@H]1C(=O)N(C)[C@@H](CCCC)C(=O)N[C@@H](CC(C)C)C(=O)NCCC[C@@H](N)C(=O)N[C@@H](Cc2ccc(F)cc2)C(=O)N2CCCC[C@H]2C(=O)N[C@@H](CC(N)=O)C(=O)N2CCC[C@H]2C(=O)N[C@@H](CN)C(=O)N[C@@H](CC(C)C)C(=O)N2C[C@H](O)C[C@H]2C(=O)N[C@@H](Cc2c[nH]c3ccccc23)C(=O)N[C@@H](CCN)C(=O)N[C@@H](Cc2cn(CC(=O)O)c3ccccc23)C(=O)N1C` [Example 10566] (H-[dOrn][Phe(4-F)][Pip]NP[Dap]L[Hyp]W[Dab][Trp(1-CH2COOH)][NMeNle][NMeNle]L; lactam 1-C) showed an IC50 of 1 to 9.9 nM.
